{
  "source": "patent US11684595B2",
  "about": "“Characterization of the oral microbiome for the non-invasive diagnosis of Barrett's esophagus” (The Trustees of Columbia University in the City of New York, priority 2017, dated 2023)",
  "format_in_all_cases": "in vivo, human",
  "key": {"[1]": {"test_system": "culturable bacteria in the esophagus", "assay": "Culture of esophageal brushings on TSA plates with 5% sheep blood after two weeks of mouth rinse (randomized trial)", "procedure": "A randomized controlled trial of chlorhexidine antimicrobial mouth rinse study was conducted in patients scheduled to undergo upper endoscopy. It is postulated that the microbiome may play a role in the development of various esophageal and other upper gastrointestinal diseases such as Barrett's esophagus and esophageal cancer. The microbiome of the upper gastrointestinal tract is heavily influenced by migration of bacteria from the mouth via swallowed secretions. Therefore, it stands to reason that altering the oral microbiome can directly impact the microbiome of the esophagus and gastric cardia. Chlorhexidine mouth rinse (i.e. an antiseptic oral rinse) effectively alters levels of many bacteria in the mouth, including anaerobes and species that are not easily cultured, and also has anti-inflammatory effects. A randomized open-label pilot study was performed to test this hypothesis that use of an antimicrobial mouth rinse alters the microbiome of the lower esophagus and gastric cardia.\n(§1) The enrolled subjects were those already scheduled for upper endoscopy for clinical indications. • Subjects were randomized 1:1 to receive 0.12% chlorhexidine mouth rinse or no treatment. • Antimicrobial mouth rinse was used twice daily for two weeks leading up to the endoscopy. The two-week time frame was chosen as a practical end-point for the clinical study, and treatment can be for any desired period of time, i.e. to obtain the desired microbiome mix. • Baseline sample collection: Saliva, oral swab. • Samples collected at follow-up (day of endoscopy): Saliva, oral swab, esophageal brushings, gastric cardia brushings.\n(§2) Patients scheduled to undergo upper endoscopy were randomized to treatment with chlorhexidine 0.12% mouth rinse or no mouth rinse for two weeks leading up to the endoscopy. Oral samples (swabs and saliva) were collected at baseline and after two weeks. During the endoscopy, brushings of the esophagus and of the gastric cardia were collected to sample the microbiome.\nAn interim analysis was performed on the esophageal brushings collected during upper endoscopy. Approximately one half of the bacteria in the esophagus can be readily cultured. Thus, it was hypothesized that a change in the amount of culturable bacteria (either increased or decreased) would reflect a change in the proportion of culturable:non-culturable bacteria in the esophagus. Samples from the first 14 subjects (8 controls not using mouth rinse, 6 subjects using chlorhexidine mouth rinse) were collected, and solutions were prepared from these samples. The samples were then plated onto trypticase soy agar (TSA) plates with 5% sheep blood and incubated for 18 hours at 37° C."}, "salivary microbiome": {"test_system": "salivary microbiome", "assay": "16S rRNA gene sequencing of saliva, randomized trial of antimicrobial mouth rinse", "conditions": "LEfSe", "excerpt": "as §1, §2\n16 S rRNA gene sequencing was performed on all of the biosamples. The V3-V4 hypervariable region for all samples was sequenced using the Illumina HiSeq 2500 in Rapid Mode with 2×300 bp read length (Illumina, San Diego, Calif.). The Greengenes reference database was used. Taxonomic units were clustered at 97% sequence similarity using USEARCH and taxonomic assignments were made using mothur. […]"}, "esophageal microbiome": {"test_system": "esophageal microbiome", "assay": "16S rRNA gene sequencing of esophageal brushings, randomized trial of antimicrobial mouth rinse", "excerpt": "as §1, §2\n16 S rRNA gene sequencing was performed on all of the biosamples. The V3-V4 hypervariable region for all samples was sequenced using the Illumina HiSeq 2500 in Rapid Mode with 2×300 bp read length (Illumina, San Diego, Calif.). The Greengenes reference database was used. Taxonomic units were clustered at 97% sequence similarity using USEARCH and taxonomic assignments were made using mothur. A phylogenetic tree of the contigs was generated with FastTree version 2.1.7.\nIn order to determine whether chlorhexidine alters the esophageal microbiome, a comparison of the microbiome composition from esophageal samples was performed, comparing the treatment and no treatment arms."}, "[2]": {"conditions": "0.12% mouth rinse twice daily for two weeks before endoscopy, n = 6, plated on TSA, 18 hours at 37° C."}},
  "data": [
    {"smiles": "[H]/N=C(\\N/C(=N/[H])NCCCCCCNC(=N)NC(=N)Nc1ccc(Cl)cc1)Nc1ccc(Cl)cc1", "note": "[Chlorhexidine, chlorhexidine]", "values": [
      {"measurement": "Mean (SE) CFU/mL from esophageal brushings collected at endoscopy", "setting": "[1]; [2]", "value": "56,433 (42,654) CFU/mL"},
      {"measurement": "Mean (SE) number of colonies from esophageal brushings collected at endoscopy", "setting": "[1]; [2]", "value": "282 (213)"},
      {"measurement": "numbers of culturable bacteria (colonies and CFU/mL) in the esophagus compared to no chlorhexidine rinse", "setting": "[1]; FIGS. 3A-B", "value": "increased numbers of culturable bacteria"},
      {"measurement": "increase in growth of culturable bacteria compared to the arm not receiving mouth rinse", "setting": "[1]; esophageal brushings, 6 subjects using rinse vs 8 controls", "value": 68, "unit": "%"},
      {"measurement": "taxonomic changes in salivary microbiome after treatment compared to baseline", "setting": "salivary microbiome; 2 weeks' treatment, FIG. 4A", "value": "Numerous taxa were altered"},
      {"measurement": "differences in salivary microbiome at follow-up versus no treatment in phylum Firmicutes and species Haemophilus parainfluenzae", "setting": "salivary microbiome; follow-up, FIG. 4B", "value": "large differences were seen"},
      {"measurement": "beta diversity analysis of esophageal microbiome, clustering by treatment group", "setting": "esophageal microbiome; FIG. 5", "value": "significant clustering by treatment group"},
      {"measurement": "esophageal microbiome composition compared to patients receiving no treatment", "setting": "esophageal microbiome; FIGS. 5-6", "value": "markedly distinct"},
      {"measurement": "relative abundance of Haemophilus in the esophageal microbiome", "setting": "esophageal microbiome; vs no treatment arm, FIG. 6", "value": "significantly decreased"},
      {"measurement": "relative abundance of Streptococcus in the esophageal microbiome", "setting": "esophageal microbiome; vs no treatment arm, FIG. 6", "value": "increased"}
    ]}
  ]
}
